pIC50: −log10 of the molar value.
The compounds below were run against Factor D (Homo sapiens, UniProt P00746) (assay: Factor D esterolytic assay (Z-Lys-SBzl thioester substrate, DTNB, 405 nm)). Details: substrate Z-Lys-SBzl 1.29 mM, 100 mM HEPES, 500 mM NaCl, pH 7.5, 10% DMSO, tested a minimum of three times.
Assay type: biochemical
In short: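 Human Factor D hydrolysis of Z-Lys-SBzl (1.29 mM) monitored at 405 nm via DTNB thiol detection for 600 s, 690 nm background subtracted. Buffer 100 mM HEPES, 500 mM NaCl, pH 7.5, 10% DMSO; substrate added immediately or after room-temperature preincubation. IC50 from percent inhibition of rate, at least three tests.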

Chain of Factor D (P00746 26-253): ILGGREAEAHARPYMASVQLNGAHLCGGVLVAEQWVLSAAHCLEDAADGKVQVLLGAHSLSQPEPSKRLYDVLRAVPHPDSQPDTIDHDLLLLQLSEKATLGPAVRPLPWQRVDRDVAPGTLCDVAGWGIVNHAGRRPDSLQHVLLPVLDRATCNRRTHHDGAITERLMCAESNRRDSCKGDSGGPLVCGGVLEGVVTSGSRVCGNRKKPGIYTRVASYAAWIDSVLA

**Q.** With `Cc1ccc(-c2cc(C)c3c(c2)c2c(N)ncnc2n3CC(=O)N2[C@H](C(=O)Nc3cccc(Br)n3)C[C@@]3(C)C[C@@H]23)cc1` [Compound 255c, (1R,3S,5R)-2-(2-(4-amino-8-methyl-6-(p-tolyl)-9H-pyrimido[4,5-b]indol-9-yl)acetyl)-N-(6-bromopyridin-2-yl)-5-methyl-2-azabicyclo[3.1.0]hexane-3-carboxamide] as the compound, how does the pIC50 read?
**A.** Its pIC50 is > 7.00.

**Q.** How did the pIC50 turn out when `Cc1ccc(-c2cc(C)c3c(c2)c2c(N)ncnc2n3CC(=O)N2[C@@H]3C[C@@H]3C[C@H]2C(=O)Nc2cccc(Br)n2)cc1` [Compound 256a, (1R,3S,5R)-2-(2-(4-amino-8-methyl-6-(p-tolyl)-9H-pyrimido[4,5-b]indol-9-yl)acetyl)-N-(6-bromopyridin-2-yl)-2-azabicyclo[3.1.0]hexane-3-carboxamide] was run?
**A.** The pIC50 was > 7.00.

**Q.** With `COc1cc(C)c2c(c1)c1c(N)ncnc1n2CC(=O)N1[C@@H]2C[C@@H]2C[C@H]1C(=O)Nc1cccc(Br)n1` [Compound 257g, (1R,3S,5R)-2-(2-(4-amino-6-methoxy-8-methyl-9H-pyrimido[4,5-b]indol-9-yl)acetyl)-N-(6-bromopyridin-2-yl)-2-azabicyclo[3.1.0]hexane-3-carboxamide] as the compound, how does the pIC50 read?
**A.** The pIC50 was > 7.00.

**Q.** `COc1cc(C)c2c(c1)c1c(N)ncnc1n2CC(=O)N1[C@H](C(=O)Nc2cccc(Br)n2)C[C@@]2(C)C[C@@H]12` [Compound 258a, (1R,3S,5R)-2-(2-(4-amino-6-methoxy-8-methyl-9H-pyrimido[4,5-b]indol-9-yl)acetyl)-N-(6-bromopyridin-2-yl)-5-methyl-2-azabicyclo[3.1.0]hexane-3-carboxamide] was tested. Which pIC50 did it give?
**A.** Its pIC50 is > 7.00.

**Q.** With `Nc1ncnc2c1c1cc(C(F)(F)F)ccc1n2CC(=O)N1[C@@H]2C[C@@H]2C[C@H]1C(=O)Nc1ccnc(Br)c1` [Compound 259d, (1R,3S,5R)-2-(2-(4-amino-6-(trifluoromethyl)-9H-pyrimido[4,5-b]indol-9-yl)acetyl)-N-(2-bromopyridin-4-yl)-2-azabicyclo[3.1.0]hexane-3-carboxamide] as the compound, how does the pIC50 read?
**A.** The pIC50 was 6.00 to 7.00.

**Q.** How did the pIC50 turn out when `Nc1ncnc2c1c1cc(C(F)(F)F)ccc1n2CC(=O)N1[C@@H]2C[C@@H]2C[C@H]1C(=O)Nc1cncc(Br)n1` [Compound 260a, (1R,3S,5R)-2-(2-(4-amino-6-(trifluoromethyl)-9H-pyrimido[4,5-b]indol-9-yl)acetyl)-N-(6-bromopyrazin-2-yl)-2-azabicyclo[3.1.0]hexane-3-carboxamide] was run?
**A.** Its pIC50 is > 7.00.

**Q.** With `C[C@@]12C[C@@H](C(=O)Nc3cncc(Br)n3)N(C(=O)Cn3c4ccc(C(F)(F)F)cc4c4c(N)ncnc43)[C@@H]1C2` [Compound 261d, (1R,3S,5R)-2-(2-(4-amino-6-(trifluoromethyl)-9H-pyrimido[4,5-b]indol-9-yl)acetyl)-N-(6-bromopyrazin-2-yl)-5-methyl-2-azabicyclo[3.1.0]hexane-3-carboxamide] as the compound, how does the pIC50 read?
**A.** The pIC50 was > 7.00.

**Q.** `CN(C)c1ccc2c(c1)c1c(N)ncnc1n2CC(=O)N1[C@@H]2C[C@@H]2C[C@H]1C(=O)Nc1cccc(Br)n1` [Compound 262a, (1R,3S,5R)-2-(2-(4-amino-6-(dimethylamino)-9H-pyrimido[4,5-b]indol-9-yl)acetyl)-N-(6-bromopyridin-2-yl)-2-azabicyclo[3.1.0]hexane-3-carboxamide] was tested. Which pIC50 did it give?
**A.** Its pIC50 is > 7.00.

**Q.** How did the pIC50 turn out when `Cc1cc(-c2ccncc2)cc2c3c(N)ncnc3n(CC(=O)N3[C@@H]4C[C@@H]4C[C@H]3C(=O)Nc3cccc(Br)n3)c12` [Compound 263c, (1R,3S,5R)-2-(2-(4-amino-8-methyl-6-(pyridin-4-yl)-9H-pyrimido[4,5-b]indol-9-yl)acetyl)-N-(6-bromopyridin-2-yl)-2-azabicyclo[3.1.0]hexane-3-carboxamide] was run?
**A.** Its pIC50 is > 7.00.

**Q.** With `Cc1cc(-c2ccncc2)cc2c3c(N)ncnc3n(CC(=O)N3[C@H](C(=O)Nc4cccc(Br)n4)C[C@@]4(C)C[C@@H]34)c12` [Compound 264a, (1R,3S,5R)-2-(2-(4-amino-8-methyl-6-(pyridin-4-yl)-9H-pyrimido[4,5-b]indol-9-yl)acetyl)-N-(6-bromopyridin-2-yl)-5-methyl-2-azabicyclo[3.1.0]hexane-3-carboxamide] as the compound, how does the pIC50 read?
**A.** The pIC50 was > 7.00.

**Q.** `Cc1cc(O)cc2c3c(N)ncnc3n(CC(=O)N3[C@H](C(=O)Nc4cccc(Br)n4)C[C@@]4(C)C[C@@H]34)c12` [Compound 265a, (1R,3S,5R)-2-(2-(4-amino-6-hydroxy-8-methyl-9H-pyrimido[4,5-b]indol-9-yl)acetyl)-N-(6-bromopyridin-2-yl)-5-methyl-2-azabicyclo[3.1.0]hexane-3-carboxamide] was tested. Which pIC50 did it give?
**A.** Its pIC50 is > 7.00.

**Q.** How did the pIC50 turn out when `Nc1ncnc2c1c1cc(C(F)(F)F)ccc1n2CC(=O)N1[C@@H]2C[C@@H]2C[C@H]1C(=O)Nc1cccc(Br)c1` [Compound 266b, (1R,3S,5R)-2-(2-(4-amino-6-(trifluoromethyl)-9H-pyrimido[4,5-b]indol-9-yl)acetyl)-N-(3-bromophenyl)-2-azabicyclo[3.1.0]hexane-3-carboxamide] was run?
**A.** Its pIC50 is > 7.00.

**Q.** With `Nc1ncnc2c1c1cc(C(F)(F)F)ccc1n2CC(=O)N1[C@@H]2C[C@@H]2C[C@H]1C(=O)Nc1cccc(Cl)n1` [Compound 267c, (1R,3S,5R)-2-(2-(4-amino-6-(trifluoromethyl)-9H-pyrimido[4,5-b]indol-9-yl)acetyl)-N-(6-chloropyridin-2-yl)-2-azabicyclo[3.1.0]hexane-3-carboxamide] as the compound, how does the pIC50 read?
**A.** The pIC50 was > 7.00.

**Q.** With `Nc1ncnc2c1c1cc(C(F)(F)F)ccc1n2CC(=O)N1[C@@H]2C[C@@H]2C[C@H]1C(=O)Nc1cccc(Br)c1F` [Compound 268b, (1R,3S,5R)-2-(2-(4-amino-6-(trifluoromethyl)-9H-pyrimido[4,5-b]indol-9-yl)acetyl)-N-(3-bromo-2-fluorophenyl)-2-azabicyclo[3.1.0]hexane-3-carboxamide] as the compound, how does the pIC50 read?
**A.** The pIC50 was > 7.00.

**Q.** With `C[C@@]12C[C@@H](C(=O)Nc3cccc(Cl)n3)N(C(=O)Cn3c4ccc(C(F)(F)F)cc4c4c(N)ncnc43)[C@@H]1C2` [Compound 269c, (1R,3S,5R)-2-(2-(4-amino-6-(trifluoromethyl)-9H-pyrimido[4,5-b]indol-9-yl)acetyl)-N-(6-chloropyridin-2-yl)-5-methyl-2-azabicyclo[3.1.0]hexane-3-carboxamide] as the compound, how does the pIC50 read?
**A.** The pIC50 was > 7.00.

**Q.** With `C[C@@]12C[C@@H](C(=O)Nc3cccc(Br)n3)N(C(=O)Cn3c4ccc(-c5ccccc5)cc4c4c(N)ncnc43)[C@@H]1C2` [Compound 270a, (1R,3S,5R)-2-(2-(4-amino-6-phenyl-9H-pyrimido[4,5-b]indol-9-yl)acetyl)-N-(6-bromopyridin-2-yl)-5-methyl-2-azabicyclo[3.1.0]hexane-3-carboxamide] as the compound, how does the pIC50 read?
**A.** The pIC50 was > 7.00.

**Q.** How did the pIC50 turn out when `Cc1cccc(-c2ccc3c(c2)c2c(N)ncnc2n3CC(=O)N2[C@@H]3C[C@@H]3C[C@H]2C(=O)Nc2cccc(Br)n2)c1` [Compound 271c, (1R,3S,5R)-2-(2-(4-amino-6-(m-tolyl)-9H-pyrimido[4,5-b]indol-9-yl)acetyl)-N-(6-bromopyridin-2-yl)-2-azabicyclo[3.1.0]hexane-3-carboxamide] was run?
**A.** Its pIC50 is > 7.00.

**Q.** How did the pIC50 turn out when `Nc1ncnc2c1c1cc(C(F)(F)F)ccc1n2CC(=O)N1[C@@H]2C[C@@H]2C[C@H]1C(=O)Nc1ccccn1` [Compound 272c, (1R,3S,5R)-2-(2-(4-amino-6-(trifluoromethyl)-9H-pyrimido[4,5-b]indol-9-yl)acetyl)-N-(pyridin-2-yl)-2-azabicyclo[3.1.0]hexane-3-carboxamide] was run?
**A.** The pIC50 was 6.00 to 7.00.

**Q.** With `Nc1ncnc2c1c1cc(-c3cccnc3)ccc1n2CC(=O)N1[C@@H]2C[C@@H]2C[C@H]1C(=O)Nc1cccc(Br)n1` [Compound 273c, (1R,3S,5R)-2-(2-(4-amino-6-(pyridin-3-yl)-9H-pyrimido[4,5-b]indol-9-yl)acetyl)-N-(6-bromopyridin-2-yl)-2-azabicyclo[3.1.0]hexane-3-carboxamide] as the compound, how does the pIC50 read?
**A.** Its pIC50 is > 7.00.

**Q.** How did the pIC50 turn out when `Nc1ncnc2c1c1cc(OC(F)(F)F)ccc1n2CC(=O)N1[C@@H]2C[C@@H]2C[C@H]1C(=O)Nc1cccc(Br)n1` [Compound 274g, (1R,3S,5R)-2-(2-(4-amino-6-(trifluoromethoxy)-9H-pyrimido[4,5-b]indol-9-yl)acetyl)-N-(6-bromopyridin-2-yl)-2-azabicyclo[3.1.0]hexane-3-carboxamide] was run?
**A.** The pIC50 was > 7.00.

**Q.** How did the pIC50 turn out when `Nc1ncnc2c1c1cc(-c3ccoc3)ccc1n2CC(=O)N1[C@@H]2C[C@@H]2C[C@H]1C(=O)Nc1cccc(Br)n1` [Compound 275c, (1R,3S,5R)-2-(2-(4-amino-6-(furan-3-yl)-9H-pyrimido[4,5-b]indol-9-yl)acetyl)-N-(6-bromopyridin-2-yl)-2-azabicyclo[3.1.0]hexane-3-carboxamide] was run?
**A.** Its pIC50 is > 7.00.

**Q.** `COc1cc2c3c(N)ncnc3n(CC(=O)N3[C@@H]4C[C@@H]4C[C@H]3C(=O)Nc3cccc(Br)n3)c2cc1OC` [Compound 276g, (1R,3S,5R)-2-(2-(4-amino-6,7-dimethoxy-9H-pyrimido[4,5-b]indol-9-yl)acetyl)-N-(6-bromopyridin-2-yl)-2-azabicyclo[3.1.0]hexane-3-carboxamide] was tested. Which pIC50 did it give?
**A.** The pIC50 was > 7.00.

**Q.** How did the pIC50 turn out when `COc1cc2c3c(N)ncnc3n(CC(=O)N3[C@H](C(=O)Nc4cccc(Br)n4)C[C@@]4(C)C[C@@H]34)c2cc1OC` [Compound 277a, (1R,3S,5R)-2-(2-(4-amino-6,7-dimethoxy-9H-pyrimido[4,5-b]indol-9-yl)acetyl)-N-(6-bromopyridin-2-yl)-5-methyl-2-azabicyclo[3.1.0]hexane-3-carboxamide] was run?
**A.** The pIC50 was > 7.00.

**Q.** With `COc1cc(OC)c2c(c1)c1c(N)ncnc1n2CC(=O)N1[C@@H]2C[C@@H]2C[C@H]1C(=O)Nc1cccc(Br)n1` [Compound 278g, (1R,3S,5R)-2-(2-(4-amino-6,8-dimethoxy-9H-pyrimido[4,5-b]indol-9-yl)acetyl)-N-(6-bromopyridin-2-yl)-2-azabicyclo[3.1.0]hexane-3-carboxamide] as the compound, how does the pIC50 read?
**A.** Its pIC50 is > 7.00.

**Q.** `COc1cc(OC)c2c(c1)c1c(N)ncnc1n2CC(=O)N1[C@H](C(=O)Nc2cccc(Br)n2)C[C@@]2(C)C[C@@H]12` [Compound 279a, (1R,3S,5R)-2-(2-(4-amino-6,8-dimethoxy-9H-pyrimido[4,5-b]indol-9-yl)acetyl)-N-(6-bromopyridin-2-yl)-5-methyl-2-azabicyclo[3.1.0]hexane-3-carboxamide] was tested. Which pIC50 did it give?
**A.** Its pIC50 is > 7.00.
